test system: MCF-7 breast cancer cell line; experiment: In vitro antiproliferative activity, MCF-7 breast cancer cell line; type: cell-based, human; settings: Homo sapiens, MCF7, Table 2
Procedure: (§1) Substituted β-carbolines and analog compounds 39 to 57 were tested for antiproliferative activity against HPAC, Mia-PaCa2 and Panc-1 pancreatic cancer cell lines and MCF-7 and MDA-MB-468 breast cancer cell lines. Table 2 lists the IC50 values for the substituted β-carbolines and analogs thereof.

Row | SMILES | IC50
1 | COc1ccc2[nH]c3c(-c4cccc5c(Br)cccc45)nccc3c2c1 [Compound 45, 1-(5-bromonaphthalen-1-yl)-6-methoxy-9H-pyrido[3,4-b]indole] | 6.85 µM
2 | CCOC(=O)c1cc2c([nH]c3ccc(OC)cc32)c(-c2cccc3ccccc23)n1 [Compound 55, Ethyl-6-methoxy-1-(naphthalen-1-yl)-9H-pyrido[3,4-b]indole-3-carboxylate] | 17.6 µM
3 | Oc1ccc2[nH]c3c(-c4cccc5ccccc45)nccc3c2c1 [Compound 40, 1-(naphthalen-1-yl)-9H-pyrido[3,4-b]indol-6-ol] | 34 µM
4 | COc1ccc2c(c1)c1ccnc(-c3cccc4ccccc34)c1n2C [Compound 57, 6-Methoxy-9-methyl-1-(naphthalen-1-yl)-9H-pyrido[3,4-b]indole] | 52 µM
5 | Cn1c2ccccc2c2ccnc(-c3cccc4ccccc34)c21 [Compound 56, 9-Methyl-1-(naphthalen-1-yl)-9H-pyrido[3,4-b]indole] | 50.8 µM
6 | Cc1ccc2[nH]c3c(-c4cccc5c(Br)cccc45)nccc3c2c1 [Compound 46, 1-(5-bromonaphthalen-1-yl)-6-methyl-9H-pyrido[3,4-b]indole] | > 50 µM
7 | COc1cccc2c1[nH]c1c(-c3cccc4ccccc34)nccc12 [Compound 39, 8-methoxy-1-(naphthalen-1-yl)-9H-pyrido[3,4-b]indole] | > 10 µM
8 | Cc1cccc2[nH]c3c(-c4cccc5ccccc45)nccc3c12 [Compound 43, 5-methyl-1-(naphthalen-1-yl)-9H-pyrido[3,4-b]indole] | 7.83 µM

test system: MDA-MB-468 breast cancer cell line; experiment: In vitro antiproliferative activity, MDA-MB-468 breast cancer cell line; type: cell-based, human; settings: Homo sapiens, Table 2
Procedure: as §1

Row | SMILES | IC50
9 | COc1ccc2[nH]c3c(-c4cccc5c(Br)cccc45)nccc3c2c1 [Compound 45, 1-(5-bromonaphthalen-1-yl)-6-methoxy-9H-pyrido[3,4-b]indole] | 1.77 µM
10 | CCOC(=O)c1cc2c([nH]c3ccc(OC)cc32)c(-c2cccc3ccccc23)n1 [Compound 55, Ethyl-6-methoxy-1-(naphthalen-1-yl)-9H-pyrido[3,4-b]indole-3-carboxylate] | 5.67 µM
11 | Oc1ccc2[nH]c3c(-c4cccc5ccccc45)nccc3c2c1 [Compound 40, 1-(naphthalen-1-yl)-9H-pyrido[3,4-b]indol-6-ol] | 10.3 µM
12 | COc1ccc2c(c1)c1ccnc(-c3cccc4ccccc34)c1n2C [Compound 57, 6-Methoxy-9-methyl-1-(naphthalen-1-yl)-9H-pyrido[3,4-b]indole] | 17.8 µM
13 | Cn1c2ccccc2c2ccnc(-c3cccc4ccccc34)c21 [Compound 56, 9-Methyl-1-(naphthalen-1-yl)-9H-pyrido[3,4-b]indole] | 14.2 µM
14 | Cc1ccc2[nH]c3c(-c4cccc5c(Br)cccc45)nccc3c2c1 [Compound 46, 1-(5-bromonaphthalen-1-yl)-6-methyl-9H-pyrido[3,4-b]indole] | > 50 µM
15 | COc1cccc2c1[nH]c1c(-c3cccc4ccccc34)nccc12 [Compound 39, 8-methoxy-1-(naphthalen-1-yl)-9H-pyrido[3,4-b]indole] | > 10 µM
16 | Cc1cccc2[nH]c3c(-c4cccc5ccccc45)nccc3c12 [Compound 43, 5-methyl-1-(naphthalen-1-yl)-9H-pyrido[3,4-b]indole] | 1.41 µM

test system: Panc-1 pancreatic cancer cell line; experiment: In vitro antiproliferative activity, Panc-1 pancreatic cancer cell line; type: cell-based, human; settings: Homo sapiens, Table 1
Procedure: as §1

Row | SMILES | IC50
17 | COc1ccc2c(c1)[nH]c1c(-c3c4ccccc4cc4ccccc34)nccc12 [Compound 28, 1-Anthracen-9-yl-7-methoxy-9H-β-carboline] | 14.9 µM
18 | COc1ccc2c(c1)[nH]c1c(-c3cc4ccccc4c4ccccc34)nccc12 [Compound 30, 7-Methoxy-1-phenanthren-9-yl-9H-β-carboline] | > 50 µM
19 | COc1ccc2c(c1)[nH]c1c(-c3c(C)ccc4ccccc34)nccc12 [Compound 34, 7-Methoxy-1-(2-methyl-naphthalen-1-yl)-9H-β-carboline] | 33.3 µM
20 | COc1ccc2[nH]c3c(-c4cnc5ccccc5c4)nccc3c2c1 [Compound 17, 6-Methoxy-1-quinolin-3-yl-9H-β-carboline] | 29 µM
21 | COc1ccc2c(c1)[nH]c1c(-c3cncc4ccccc34)nccc12 [Compound 16, 1-Isoquinolin-4-yl-7-methoxy-9H-β-carboline] | > 50 µM
22 | COc1ccc2[nH]c3c(-c4cccc5ncccc45)nccc3c2c1 [Compound 21, 6-Methoxy-1-quinolin-5-yl-9H-β-carboline] | 7.52 µM
23 | c1ccc(COc2ccc3[nH]c4c(-c5cccc6ccccc56)nccc4c3c2)cc1 [Compound 36, 6-Benzyloxy-1-naphthalen-1-yl-9H-β-carboline] | 0.57 µM
24 | COc1ccc2c(c1)[nH]c1c(-c3cccc4ccccc34)nccc12 [Compound 20, 7-Methoxy-1-naphthalen-1-yl-9H-β-carboline] | > 50 µM
25 | COc1ccc2c(c1)[nH]c1c(-c3ccc4ccccc4c3)nccc12 [Compound 26, 7-Methoxy-1-naphthalen-2-yl-9H-β-carboline] | 48 µM
26 | COc1ccc2c(c1)[nH]c1c(-c3nccc4ccccc34)nccc12 [Compound 12, 1-Isoquinolin-1-yl-7-methoxy-9H-β-carboline] | > 50 µM

same assay, conditions: Homo sapiens, Table 2

Row | SMILES | IC50
27 | COc1ccc2[nH]c3c(-c4cccc5c(Br)cccc45)nccc3c2c1 [Compound 45, 1-(5-bromonaphthalen-1-yl)-6-methoxy-9H-pyrido[3,4-b]indole] | 2.92 µM
28 | CCOC(=O)c1cc2c([nH]c3ccc(OC)cc32)c(-c2cccc3ccccc23)n1 [Compound 55, Ethyl-6-methoxy-1-(naphthalen-1-yl)-9H-pyrido[3,4-b]indole-3-carboxylate] | 23.3 µM
29 | COc1ccc2c(c1)c1ccnc(-c3cccc4ccccc34)c1n2C [Compound 57, 6-Methoxy-9-methyl-1-(naphthalen-1-yl)-9H-pyrido[3,4-b]indole] | 41.3 µM
30 | Cn1c2ccccc2c2ccnc(-c3cccc4ccccc34)c21 [Compound 56, 9-Methyl-1-(naphthalen-1-yl)-9H-pyrido[3,4-b]indole] | 33.9 µM
31 | Cc1ccc2[nH]c3c(-c4cccc5c(Br)cccc45)nccc3c2c1 [Compound 46, 1-(5-bromonaphthalen-1-yl)-6-methyl-9H-pyrido[3,4-b]indole] | > 50 µM
32 | COc1cccc2c1[nH]c1c(-c3cccc4ccccc34)nccc12 [Compound 39, 8-methoxy-1-(naphthalen-1-yl)-9H-pyrido[3,4-b]indole] | 26.5 µM
33 | Cc1cccc2[nH]c3c(-c4cccc5ccccc45)nccc3c12 [Compound 43, 5-methyl-1-(naphthalen-1-yl)-9H-pyrido[3,4-b]indole] | 4.56 µM

test system: Mia-PaCa2 pancreatic cancer cell line; experiment: In vitro antiproliferative activity, Mia-PaCa2 pancreatic cancer cell line; type: cell-based; settings: Homo sapiens, MIA PaCa-2, Table 1
Procedure: (§2) Substituted β-carboline compounds 4 to 38 were tested for antiproliferative activity against HCT116 colon cancer cells and HPAC, Mia-PaCa2 and Panc-1 pancreatic cancer cell lines. Table 1 lists the IC50 values for the substituted β-carbolines.
as §1

Row | SMILES | IC50
34 | COc1ccc2c(c1)[nH]c1c(-c3c4ccccc4cc4ccccc34)nccc12 [Compound 28, 1-Anthracen-9-yl-7-methoxy-9H-β-carboline] | 3.59 µM
35 | COc1ccc2c(c1)[nH]c1c(-c3cc4ccccc4c4ccccc34)nccc12 [Compound 30, 7-Methoxy-1-phenanthren-9-yl-9H-β-carboline] | 1.57 µM
36 | COc1ccc2c(c1)[nH]c1c(-c3c(C)ccc4ccccc34)nccc12 [Compound 34, 7-Methoxy-1-(2-methyl-naphthalen-1-yl)-9H-β-carboline] | 20.7 µM
37 | COc1ccc2[nH]c3c(-c4cnc5ccccc5c4)nccc3c2c1 [Compound 17, 6-Methoxy-1-quinolin-3-yl-9H-β-carboline] | 17 µM
38 | COc1ccc2c(c1)[nH]c1c(-c3cncc4ccccc34)nccc12 [Compound 16, 1-Isoquinolin-4-yl-7-methoxy-9H-β-carboline] | 36.7 µM
39 | COc1ccc2[nH]c3c(-c4cccc5ncccc45)nccc3c2c1 [Compound 21, 6-Methoxy-1-quinolin-5-yl-9H-β-carboline] | 2.58 µM
40 | c1ccc(COc2ccc3[nH]c4c(-c5cccc6ccccc56)nccc4c3c2)cc1 [Compound 36, 6-Benzyloxy-1-naphthalen-1-yl-9H-β-carboline] | 0.51 µM
41 | COc1ccc2c(c1)[nH]c1c(-c3cccc4ccccc34)nccc12 [Compound 20, 7-Methoxy-1-naphthalen-1-yl-9H-β-carboline] | 6.61 µM
42 | COc1ccc2c(c1)[nH]c1c(-c3ccc4ccccc4c3)nccc12 [Compound 26, 7-Methoxy-1-naphthalen-2-yl-9H-β-carboline] | 21.7 µM
43 | COc1ccc2c(c1)[nH]c1c(-c3nccc4ccccc34)nccc12 [Compound 12, 1-Isoquinolin-1-yl-7-methoxy-9H-β-carboline] | 49.2 µM

same assay, conditions: Homo sapiens, MIA PaCa-2, Table 2

Row | SMILES | IC50
44 | COc1ccc2[nH]c3c(-c4cccc5c(Br)cccc45)nccc3c2c1 [Compound 45, 1-(5-bromonaphthalen-1-yl)-6-methoxy-9H-pyrido[3,4-b]indole] | 1.17 µM
45 | CCOC(=O)c1cc2c([nH]c3ccc(OC)cc32)c(-c2cccc3ccccc23)n1 [Compound 55, Ethyl-6-methoxy-1-(naphthalen-1-yl)-9H-pyrido[3,4-b]indole-3-carboxylate] | 17.5 µM
46 | COc1ccc2c(c1)c1ccnc(-c3cccc4ccccc34)c1n2C [Compound 57, 6-Methoxy-9-methyl-1-(naphthalen-1-yl)-9H-pyrido[3,4-b]indole] | 34 µM
47 | Cn1c2ccccc2c2ccnc(-c3cccc4ccccc34)c21 [Compound 56, 9-Methyl-1-(naphthalen-1-yl)-9H-pyrido[3,4-b]indole] | 37.4 µM
48 | Cc1ccc2[nH]c3c(-c4cccc5c(Br)cccc45)nccc3c2c1 [Compound 46, 1-(5-bromonaphthalen-1-yl)-6-methyl-9H-pyrido[3,4-b]indole] | 41.7 µM
49 | COc1cccc2c1[nH]c1c(-c3cccc4ccccc34)nccc12 [Compound 39, 8-methoxy-1-(naphthalen-1-yl)-9H-pyrido[3,4-b]indole] | 31.9 µM
50 | Cc1cccc2[nH]c3c(-c4cccc5ccccc45)nccc3c12 [Compound 43, 5-methyl-1-(naphthalen-1-yl)-9H-pyrido[3,4-b]indole] | 1.17 µM

test system: HPAC pancreatic cancer cell line; experiment: In vitro antiproliferative activity, HPAC pancreatic cancer cell line; type: cell-based; settings: Homo sapiens, Table 1
Procedure: as §2, §1

Row | SMILES | IC50
51 | COc1ccc2c(c1)[nH]c1c(-c3c4ccccc4cc4ccccc34)nccc12 [Compound 28, 1-Anthracen-9-yl-7-methoxy-9H-β-carboline] | 5.47 µM
52 | COc1ccc2c(c1)[nH]c1c(-c3cc4ccccc4c4ccccc34)nccc12 [Compound 30, 7-Methoxy-1-phenanthren-9-yl-9H-β-carboline] | 5.67 µM
53 | COc1ccc2c(c1)[nH]c1c(-c3c(C)ccc4ccccc34)nccc12 [Compound 34, 7-Methoxy-1-(2-methyl-naphthalen-1-yl)-9H-β-carboline] | 17.6 µM
54 | COc1ccc2[nH]c3c(-c4cnc5ccccc5c4)nccc3c2c1 [Compound 17, 6-Methoxy-1-quinolin-3-yl-9H-β-carboline] | 21.9 µM
55 | COc1ccc2c(c1)[nH]c1c(-c3cncc4ccccc34)nccc12 [Compound 16, 1-Isoquinolin-4-yl-7-methoxy-9H-β-carboline] | 44.9 µM
56 | COc1ccc2[nH]c3c(-c4cccc5ncccc45)nccc3c2c1 [Compound 21, 6-Methoxy-1-quinolin-5-yl-9H-β-carboline] | 5.83 µM
57 | c1ccc(COc2ccc3[nH]c4c(-c5cccc6ccccc56)nccc4c3c2)cc1 [Compound 36, 6-Benzyloxy-1-naphthalen-1-yl-9H-β-carboline] | 0.83 µM
58 | COc1ccc2c(c1)[nH]c1c(-c3cccc4ccccc34)nccc12 [Compound 20, 7-Methoxy-1-naphthalen-1-yl-9H-β-carboline] | 25.5 µM
59 | COc1ccc2c(c1)[nH]c1c(-c3ccc4ccccc4c3)nccc12 [Compound 26, 7-Methoxy-1-naphthalen-2-yl-9H-β-carboline] | 20.8 µM
60 | COc1ccc2c(c1)[nH]c1c(-c3nccc4ccccc34)nccc12 [Compound 12, 1-Isoquinolin-1-yl-7-methoxy-9H-β-carboline] | 34.8 µM

same assay, conditions: Homo sapiens, Table 2

Row | SMILES | IC50
61 | COc1ccc2[nH]c3c(-c4cccc5c(Br)cccc45)nccc3c2c1 [Compound 45, 1-(5-bromonaphthalen-1-yl)-6-methoxy-9H-pyrido[3,4-b]indole] | 6.18 µM
62 | CCOC(=O)c1cc2c([nH]c3ccc(OC)cc32)c(-c2cccc3ccccc23)n1 [Compound 55, Ethyl-6-methoxy-1-(naphthalen-1-yl)-9H-pyrido[3,4-b]indole-3-carboxylate] | 12.9 µM
63 | COc1ccc2c(c1)c1ccnc(-c3cccc4ccccc34)c1n2C [Compound 57, 6-Methoxy-9-methyl-1-(naphthalen-1-yl)-9H-pyrido[3,4-b]indole] | 44.2 µM
64 | Cn1c2ccccc2c2ccnc(-c3cccc4ccccc34)c21 [Compound 56, 9-Methyl-1-(naphthalen-1-yl)-9H-pyrido[3,4-b]indole] | 21.2 µM
65 | Cc1ccc2[nH]c3c(-c4cccc5c(Br)cccc45)nccc3c2c1 [Compound 46, 1-(5-bromonaphthalen-1-yl)-6-methyl-9H-pyrido[3,4-b]indole] | > 50 µM
66 | COc1cccc2c1[nH]c1c(-c3cccc4ccccc34)nccc12 [Compound 39, 8-methoxy-1-(naphthalen-1-yl)-9H-pyrido[3,4-b]indole] | 20.5 µM
67 | Cc1cccc2[nH]c3c(-c4cccc5ccccc45)nccc3c12 [Compound 43, 5-methyl-1-(naphthalen-1-yl)-9H-pyrido[3,4-b]indole] | 4.03 µM

test system: HCT116 colon cancer cells; experiment: In vitro antiproliferative activity, HCT116 colon cancer cells; type: cell-based; settings: Homo sapiens, HCT-116, Table 1
Procedure: as §2

Row | SMILES | IC50
68 | COc1ccc2c(c1)[nH]c1c(-c3c4ccccc4cc4ccccc34)nccc12 [Compound 28, 1-Anthracen-9-yl-7-methoxy-9H-β-carboline] | 1.7 µM
69 | COc1ccc2c(c1)[nH]c1c(-c3cc4ccccc4c4ccccc34)nccc12 [Compound 30, 7-Methoxy-1-phenanthren-9-yl-9H-β-carboline] | 0.87 µM
70 | COc1ccc2c(c1)[nH]c1c(-c3c(C)ccc4ccccc34)nccc12 [Compound 34, 7-Methoxy-1-(2-methyl-naphthalen-1-yl)-9H-β-carboline] | 2.43 µM
71 | COc1ccc2[nH]c3c(-c4cnc5ccccc5c4)nccc3c2c1 [Compound 17, 6-Methoxy-1-quinolin-3-yl-9H-β-carboline] | 14.1 µM
72 | COc1ccc2c(c1)[nH]c1c(-c3cncc4ccccc34)nccc12 [Compound 16, 1-Isoquinolin-4-yl-7-methoxy-9H-β-carboline] | 33.5 µM
73 | COc1ccc2[nH]c3c(-c4cccc5ncccc45)nccc3c2c1 [Compound 21, 6-Methoxy-1-quinolin-5-yl-9H-β-carboline] | 0.9 µM
74 | COc1ccc2c(c1)[nH]c1c(-c3cccc4ccccc34)nccc12 [Compound 20, 7-Methoxy-1-naphthalen-1-yl-9H-β-carboline] | 3.6 µM
75 | COc1ccc2c(c1)[nH]c1c(-c3ccc4ccccc4c3)nccc12 [Compound 26, 7-Methoxy-1-naphthalen-2-yl-9H-β-carboline] | 17.1 µM

Source: US8927570B2, “1-naphthyl-or 1-dihydroacenaphthenyl-pyrido[B]indoles and uses thereof in treating cancers” (priority 2009, dated 2015)
